The values below come from patent US6130248A, “Tricarboxylic acid-containing oxyalkyl esters and uses thereof” (Bar-ILAn University, priority 1996, dated 2000).

One test relates to HL-60 cells. The test can be described thus: SRB cell proliferation assay. In kind it is cell-based. To be noted: Homo sapiens; HL-60, SRB. The procedure:
(§1) The inhibition of cell proliferation was measured in the indicated cancer cell lines using the sulforhoamine B (SRB) assay as described by Monks et al., J. Natl. Can. Inst. […] The SRB assay is used to screen for anti-cancer drugs.

The next test relates to CFPAC cells. The test can be described thus: SRB cell proliferation assay. The test is classed as cell-based. The procedure: as §1
For another test, the system named is HT-29 cells. Nature of the test: SRB cell proliferation assay. The test is classed as cell-based. The following applies: Homo sapiens; HT-29, SRB. The procedure:
as §1

Another test concerns MCF7 cells. The test can be described thus: SRB cell proliferation assay. The test is classed as cell-based. The following applies: Homo sapiens. The procedure: as §1
In test [1] the test system is established tumor cell lines. Nature of the test: Clonogenicity of established tumor cell lines, all lines together. The test is classed as cell-based, human. The following applies: in words. The procedure:
(§2) Inhibition of tumor growth was tested using cell lines as follows: […]

For test [2], the system named is P3HR-1 EBV-positive lymphoma cells. Nature of the test: [3H]-thymidine incorporation in EBV-positive lymphoma cells. The test is classed as cell-based, human. The following applies: combination with GC, 72 hours. The procedure: The effect of GOMB to AB was compared on EBV virus-associated tumors. EBV-positive cells from P3HR-1, a human lymphoma cell line, were incubated in growth medium with the specified concentration of GOMB, AB, ganciclovir (GC), or combination of these, for 72 hours, seeded in 96-well plates and pulsed with 1 μCi [^3 H]-thymidine/well during the last 16 hours of exposure to the compounds. Cells were harvested with a cell harvester, using glass microfiber filters. The incorporation of [^3 H]-thymidine was determined by retention of the acid insoluble fraction on filters and is expressed as CPM.

Another test deals with MCF-7 cells (WAF). The test can be described thus: Apoptosis in breast cancer cells, staining with WAF antibody / Western blot. The following applies: 100 μM. The test is classed as cell-based, human. The procedure: Induction of apoptosis by COMB and AB in MCF-7 cells was evaluated by staining cells with the WAF antibody and by Western blot analysis as described by Bacus et al., 1996, Oncogene 12:2535-2547.

For test [3], the system named is β-thalassemia and sickle-cell anemia. The following applies: β-globin disorders; cited from earlier work.
Test [4] has as its system K562 cells (HbF). The test can be described thus: Hb-containing K562 cells by benzidine staining. In kind it is cell-based, human. To be noted: 0.05 mM, 5 days. The procedure: Hb Measurement: HB was measured by benzidine staining of K562 cells after 5 days exposure to GOMB or AB according to the procedure of Fibach et al. (1989) [full cite]. Quantitative measurement of HbF in K562 culture or human erythroid cultures was determined by ion-exchange high pressure liquid chromatography (HPLC) as described by Fibach et al., Blood 81:1630-1635, 1993.
(§3) K562 cells: K562 is an erthroblast cell line that develops some properties of erythroid, megakaryocyte or monocyte cells, depending on the specific stimulus, when induced by different chemicals. K562 cells were grown in RPMI with 10% FCS, supplemented with 2 mM glutamine. Cells were incubated at 37° C. in a humidified, 5% CO2 incubator.

Test [5] has as its system K562 cells (HbF). The test can be described thus: HbF synthesis in K562 cells (ion-exchange HPLC). The test is classed as cell-based, human. The procedure: as §3
Test [6] deals with Au565 breast carcinoma cells. The test can be described thus: Differentiation by lipid staining. The test is classed as cell-based, human. The following applies: 10 μM. An excerpt: Lipid staining and/or immunochemical staining of casein can be used as a marker for cellular differentiation of breast cancer cells (Bacus et al., Md. Carcin. 3:350-362, 1990). Casein detection can be done by histochemical staining of breast cancer cells using a human antibody to human casein as described by Cheung et al., J. Clin. Invest. 75:1722-1728,which is incorporated by reference in its entirety.
In the case of the human breast carcinoma cell line Au565, 100%. Of the cells treated with 10 μM GOMB were positive for lipid staining whereas less than 1% of cells treated with the same concentration of AB were positive for lipid staining.

The test system of test [7] is 53 primary tumor cell lines. The test can be described thus: Inhibition of clonogenicity of primary tumor cells. In kind it is cell-based, human. The following applies: Homo sapiens. An excerpt:
The tested tumor cells were from 11 non-small cell lung carcinomas, 10 breast carcinomas, 10 gastric carcinomas, 10 ovarian carcinomas, and 10 CNS tumors.

Test [8] deals with LNCaP (Prostate Carcinoma). Nature of the test: Clonogenicity of established tumor cell lines (soft agar). In kind it is cell-based, human. The following applies: Homo sapiens; LNCaP clonogenicity. The procedure:
as §2

Another test deals with NBAS-5 (Neuroblastoma). The description is as above. In kind it is cell-based, human. To be noted: Homo sapiens; NBAS-5 clonogenicity. The procedure: as §2
A further test concerns SK-N-MC (Neuroblastoma). The description is as above. In kind it is cell-based, human. To be noted: Homo sapiens; SK-N-MC clonogenicity. The procedure: as §2
Test [9] concerns MCF7-40F (Breast Carcinoma). The description is as above. In kind it is cell-based, human. To be noted: Homo sapiens; MCF7-40F clonogenicity. The procedure:
as §2

Another test relates to LA1-5S (Neuroblastoma). Described as above. In kind it is cell-based, human. The following applies: Homo sapiens; LA1-5S clonogenicity. The procedure:
as §2

For a further test, the system named is SK-N-SH (Neuroblastoma). The test is described as above. The test is classed as cell-based, human. The following applies: Homo sapiens; SK-N-SH clonogenicity. The procedure: as §2
Test [10] relates to MCF7-WT (Breast Carcinoma). The test is described as above. The test is classed as cell-based, human. The following applies: Homo sapiens; MCF7-WT clonogenicity. The procedure: as §2
In a further test the test system is SMS-KAN (Neuroblastoma). Described as above. The test is classed as cell-based, human. The following applies: Homo sapiens; SMS-KAN clonogenicity. The procedure:
as §2

For another test, the system named is NBL-W-N (Neuroblastoma). The description is as above. The following applies: Homo sapiens; NBL-W-N clonogenicity. The test is classed as cell-based, human. The procedure: as §2
For another test, the system named is IMR-32 (Neuroblastoma). The description is as above. In kind it is cell-based, human. The following applies: Homo sapiens; IMR-32 clonogenicity. The procedure: as §2
A further test concerns K562 (Erytholeukemia). Described as above. The test is classed as cell-based, human. The following applies: Homo sapiens; K562 clonogenicity. The procedure: as §2
The next test deals with PC3 (Prostate Carcinoma). The test is described as above. The test is classed as cell-based, human. To be noted: Homo sapiens; PC3 clonogenicity. The procedure:
as §2

In test [11] the test system is c-myc in HL-60 promyelocytic leukemia. The following applies: cited from earlier work.
In a further test the test system is neoplastic cells. The following applies: in vitro; cited from earlier work.
The next test deals with cancer. To be noted: cancer patients; cited from earlier work.
Test [12] has as its system colon carcinoma, leukemia and retinoblastoma cell lines. To be noted: in vitro; cited from earlier work.

For the compound `CCCC(=O)O` [AB, arginine butyrate, reference compound], the concentration for half-maximal inhibition (IC50) is 1640 µM in the test with HL-60 cells; above 4000 µM in the test on CFPAC cells; above 4000 µM in the test with HT-29 cells; above 4000 µM in the test on MCF7 cells; 780 µM in test [8]; 883 µM in the test on NBAS-5 (Neuroblastoma). The IC50 with SK-N-MC (Neuroblastoma) amounted to 215 µM; in test [9], 817 µM; in the test with LA1-5S (Neuroblastoma) it was 1630 µM; with SK-N-SH (Neuroblastoma) it was 998 µM; in test [10], 1500 µM; with SMS-KAN (Neuroblastoma), 1140 µM. In addition, the half-maximal inhibitory concentration (IC50) in the test with NBL-W-N (Neuroblastoma) was 489 µM; with IMR-32 (Neuroblastoma), 881 µM; in the test with K562 (Erytholeukemia), 772 µM; in the test with PC3 (Prostate Carcinoma), 226 µM. Besides, the IC90 in the test on HL-60 cells was 3460 µM; with CFPAC cells, above 4000 µM; in the test with HT-29 cells, above 4000 µM; in the test with MCF7 cells, above 4000 µM; in test [7], 2120 µM; in test [8], 6700 µM. Moreover, the IC90 was found to be 13000 µM in the test with NBAS-5 (Neuroblastoma); 1310 µM in the test on SK-N-MC (Neuroblastoma); 3180 µM in test [9]; 2680 µM in the test with LA1-5S (Neuroblastoma); 3400 µM in the test with SK-N-SH (Neuroblastoma); 9470 µM in [10]. Besides, the IC90 in the test on SMS-KAN (Neuroblastoma) stood at 2080 µM; in the test with NBL-W-N (Neuroblastoma), 3070 µM; with IMR-32 (Neuroblastoma) it was 3570 µM. For the same compound, in test [1], the “inhibition of cell proliferation, dose dependence” value is given as “inhibit cell proliferation in a dose-dependent manner”. Besides, the “interaction with ganciclovir (GC) in inhibiting proliferation” value in test [2] is listed as “interact synergistically with GC”. In the test on MCF-7 cells (WAF), the “% Cells Expressing WAF” value was determined as 23%. Further, the clinical efficacy result in [3] is “moderate efficacy”. Moreover, the “Percentage K562 Cells Containing HbF” value in the test on K562 cells (HbF) [4] worked out at 3 ± 2%. The “HbF Synthesis in K562 Cells” value in the test on K562 cells (HbF) [5] (0.01 mM) came to 0.96 µg/mL; in the test with K562 cells (HbF) [5] (0.05 mM), 0.95 µg/mL; in the test with K562 cells (HbF) [5] (0.10 mM) it was 1.8 µg/mL; in the test on K562 cells (HbF) [5] (0.50 mM) it was 3.69 µg/mL. Further, the “cells positive for lipid staining” value in [6] was “less than 1%”.
Turning to `CCCC(=O)O` [BA, Butyric acid], the expression of c-myc entry in [11] is reported as “decrease in the expression”. Also, the “differentiating and antiproliferative activity” value in the test on neoplastic cells is “potent differentiating and antiproliferative agent in a wide spectra of neoplastic cells”. Further, the clinical antitumor efficacy result with cancer is “minimal or transient efficacy”.
Turning to `CCCC(=O)[O-].[Na+]` [SB, sodium butyrate], the apoptosis entry in [12] is “produce apoptosis”.
For `CCCC(=O)OCOC(=O)C(C)(C)C` [AN-9, pivaloyloxymethyl butyrate], the IC50 in the test with HL-60 cells is 39 µM; in the test with CFPAC cells, 55.9 µM; in the test with HT-29 cells, 144 µM; with MCF7 cells it was 180 µM. The 90% effect concentration (IC90) with HL-60 cells came out at 59.9 µM; in the test with CFPAC cells, 89.8 µM; in the test with HT-29 cells it was 231 µM; in the test on MCF7 cells, 238 µM.

What is called IC50 is the concentration at which inhibition is half-maximal. Low readings indicate greater potency, high ones weaker potency. A word on the IC90: it is the concentration at which the effect reaches the 90% level.
